Earlier results as cited in patent US10105372B2, “Methods of treating obesity using antioxidant inflammation modulators” (REATA PHARMACEUTICALS, INC., priority 2010, dated 2018).

Conditions: monkey, in vivo, po; cited from earlier work

SMILES: COC(=O)[C@]12CCC(C)(C)C[C@H]1[C@H]1C(=O)C=C3[C@@]4(C)C=C(C#N)C(=O)C(C)(C)[C@@H]4CC[C@@]3(C)[C@]1(C)CC2 [Form B, CDDO-Me]
- bioavailability: higher than that of Form A
